According to patent US20260035452A1 (THE UNIVERSITY OF BIRMINGHAM, priority 2022, published 2026):
No end group written: not given here.

Columns and labels:
dorsal air pouch of mice = assay: In vivo air pouch model; conditions: 1 μg/mice into air pouch, 24 h
Protocol: FIG. 3: Mice were treated with IL-17 vehicle (Ctrl), IL-17 (1 μg/mice) alone (IL-17) or peptide (FM-0410) (1 μg/mice) and thereafter total cell number from pouches inflammatory exudates was evaluated at 24 h. Data were expressed as millions of cells for pouch and presented as means±S.D. of n=7 mice per group. Statistical analysis was conducted by one-way ANOVA followed by Bonferroni's for multiple comparisons. ^##P≤0.01, ^###P≤0.005 vs Ctrl group; *P≤0.05 vs IL-17 group.
FIG. 4: Inflammatory supernatants obtained from the pouch cavities were assayed using a Proteome Profiler Cytokine Array for Ctrl, IL-17 and FM-0410 experimental group. Densitometric analysis is presented as heatmap. Data (expressed as INT/mm2) are presented as means±S.D. of positive spots of three independent experiments run each with n=7 mice per group.
FIG. 5: Mice were treated with IL-17 vehicle (Ctrl), IL-17 (1 μg/mice), or peptide (FM-0410) (1 μg/mice) and inflammatory fluids were assayed by Elisa for IL-6. Data were expressed as pg/ml and presented as means±S.D. of n=7 mice per group. Statistical analysis was conducted by one-way ANOVA followed by Bonferroni's for multiple comparisons. ^##P≤0.01 vs CTRL group. […]
Specifically, dorsal air pouches were prepared by injection of 2.5 ml of air on day 0 and day 3 as previously described (Maione et al., 2009). […] Inflammatory exudates were collected and measured to evaluate the level of inflammatory cyto-chemokines. Cell number was determined by TC20 automated cell counter (Bio-Rad, Milan, Italy) using Bio-Rad's TC20 automated cell counter uses disposable slides, TC20 trypan blue dye (0.4% trypan blue dye w/v in 0.81% sodium chloride and 0.06% potassium phosphate dibasic solution) and a CCD camera to count cells based on the analyses of capture images (Maione et al., 2018).
Methods: The levels of IL-6 in the cellular and air pouch inflammatory supernatants at 24 h were measured using commercially available enzyme-linked immunosorbent assay kit (ELISA kit, R&D System, Milan, Italy) according to the manufacturer instructions. […]

[1] = test system: NIH-3T3 mouse embryonic fibroblast cells; assay: IL-6 secretion by NIH-3T3 fibroblasts (Elisa); assay type: cell-based; conditions: NIH-3T3 cells, 50 ng/ml, vs control / IL-17 group
Protocol: FIG. 2: NIH-3T3 mouse embryonic fibroblast cells were treated with IL-17 vehicle (Ctrl), IL-17 (50 ng/ml) alone (IL-17) or peptide (FM-0410) (50 ng/ml) and supernatants were assayed by Elisa for IL-6. Data were expressed as pg/ml and presented as means±S.D. of three separate independent experiments. Statistical analysis was conducted by one-way ANOVA followed by Bonferroni's for multiple comparisons. ^##P≤0.01, ^###P≤0.005 vs Ctrl group; *P≤0.05 vs IL-17 group. In order to assess the biological activity of synthesized peptide, we carried out in vitro studies using NIH-3T3 mouse embryonic fibroblast cells. […] With this in vitro system we measured IL-17 activity by its ability to induce IL-6 secretion by NIH-3T3 mouse embryonic fibroblast cells. Methods: The levels of IL-6 in the cellular and air pouch inflammatory supernatants at 24 h were measured using commercially available enzyme-linked immunosorbent assay kit (ELISA kit, R&D System, Milan, Italy) according to the manufacturer instructions. […] The addition of 100 μl of the substrate and stop solution represented the last steps before the reading of absorbance (measured at 450 nm) on a microplate reader. Antigen levels in the samples were determined using a standard curve and expressed as pg/ml. […]

How did the “cyto-chemokines profile of pouch fluid (Proteome Profiler Cytokine Array)” value (dorsal air pouch of mice) turn out when Ac-LEKILVSVGATAVTPIVHHVAC [FM-0410] was run?
Its value is “selective upregulation in a range of mediators”.

What about the “level of IL-6 in pouch fluids” value (dorsal air pouch of mice) of the same substance?
Its value is “increased level of IL-6 compared to control group”.

What about the “number of inflammatory leukocytes (total cell number from pouch exudates)” value (dorsal air pouch of mice) of the same substance?
The value was “marked increase in inflammatory infiltrates compared to control but also to IL-17-treated mice”.

What about the IL-6 release [1] of the same substance?
The IL-6 release was “significant, and more abundant, release of IL-6 compared to IL-17-treated group”.
